Measured values as given in US8895504B2, “Amylin derivatives” (priority 2008, dated 2014).
*1 amine or outer side, *2 acyl side, *3 side chain or, on linkers, in order; H or OH if unused. Where a SMILES comes first, the peptide text is derived from it. Bridges are numbered along the chain shown (N, C = ends). The star is where a group is joined. C20 diacid = O=C(O)CCCCCCCCCCCCCCCCCCC(=O)*; C18 diacid = O=C(O)CCCCCCCCCCCCCCCCC(=O)*; γGlu = O=C(O)[C@H](CCC(=O)[*:2])N[*:1]

Key:
[1] = molecular target: T1, Amylin 3(a) receptor (human calcitonin receptor (CTa) and RAMP-3) (Homo sapiens, UniProt O60896+P30988); experiment: Luciferase assay (III), BHK Amylin 3(a)//CRE-luc cells; format: cell-based; conditions: BHK cells with Amylin 3(a) receptor and CRE luciferase reporter, 4 hours incubation; read-out: Potency Luciferase
T1 construct: expressed in transfected cells; host or cells: BHK570 cells, stably transfected with a CRE-luciferase reporter
Method in brief: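 BHK570 cells stably expressing CTa, RAMP-3 and a CRE-luciferase reporter, seeded at about 20,000 cells/well and grown overnight. Cells were exposed to standard or sample for 4 h at 37° C in phenol red-free DMEM with 10% FBS and 10 mM Hepes, pH 7,4. Luminescence was read after 30 min LucLite at room temperature.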

[2] = Assay (V) PK - determination of T½ in mini-pig; format: in vivo; conditions: minipig, sc, terminal plasma half-life, subcutaneous, approx 2 nmol/kg, male Göttingen mini-pigs
Method in brief: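 Male Göttingen mini-pigs (5–12 months, 7–35 kg) got a single s.c. neck injection of approx 2 nmol/kg; plasma sampled via central venous catheter predose to 240 h (some to 288 h). Amylin measured by sandwich ELISA; T½ = ln 2/λz from non-compartmental analysis of individual profiles.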

[3] = Assay (VI) PK - determination of T½ in rat; format: in vivo; conditions: sc, terminal plasma half-life, subcutaneous, approx 20 nmol/kg, male Sprague Dawley rats
Protocol: Assay (VI) PK—Determination OF T½ in Rat
T½ is the terminal half-life=ln 2/λz of a compound in plasma. λz is the first order rate constant associated with the terminal (log-linear) portion of the plasma concentration-time curve and is estimated by linear regression of time vs. log concentration.
T½ values of the amylin analogues of the invention is determined by pharmacokinetic studies in Sprague Dawley male rats, from Taconic Europe and the principles of laboratory animal care are followed.
An acclimatization period of approximately 7 days was allowed before the animals entered the study. At start of the acclimatization period the rats were in the weight range of 300-400 g. The rats had permanent catheters inserted in a. carotis which were used for blood sampling.
The studies were conducted in an animal room which was illuminated to give a cycle of approx 12 hours light and 12 hours darkness. The animals were housed individually due to the catheters and had food and water ad lib. The animals were weighed on the days of dosing.
In the present studies the test substances were administered subcutaneously in approx 20 nmol/kg dose. The animals received a single subcutaneous injection to the neck using a 25 G needle with syringe. Each test substance was given to typically three but in some cases two or four animals.
A full plasma concentration-time profile, employing 8-10 sampling points, was obtained from each animal. In example blood samples were collected according to the following schedule:
After subcutaneous administration:
Predose (0), 0.5, 1, 1.5, 2, 4, 6, 12, 24, 48 and 72 hours after injection. At each sampling time, 0.08 to 0.10 ml of blood was drawn from each animal. The blood samples were taken via the catheter.
The blood samples were collected into EDTA test tubes. Blood samples were kept on ice for max 20 min. before centrifugation. Plasma was separated using centrifugation (i.e. at 4° C., 10 min., 1500 G) and was immediately transferred to Micronic tubes or PCR plates. Approximately 40 μl plasma was transferred and was stored at −20° C. until assayed. The plasma samples were assayed for the content of amylin using an ELISA assay.
The plasma concentration-time profiles were analysed by a non-compartmental pharmacokinetic analysis (NCA) using WinNonlin Professional 5.0 (Pharsight Inc., Mountain View, Calif., USA). NCA was performed using the individual plasma concentration-time profiles from each animal. T½ is the terminal half-life=ln 2/λz and was determined from λz, the first order rate constant associated with the terminal (log-linear) portion of the curve, estimated by linear regression of time vs. log concentration.
ELISA Plasma Assay for Amylin Quantification
The human amylin ELISA is a monoclonal antibody-based sandwich immunoassay for determining amylin levels in human plasma. The capture antibody recognizes human amylin, amylin acid (deamidated amylin), a 1-20 fragment of amylin, but not reduced amylin. The detection antibody binds to reduced or unreduced human amylin but not amylin acid and is complexed with streptavidin-alkaline phosphatase. The substrate, 4-methylumbelliferyl phosphate, is applied to the completed sandwich and the fluorescent signal, monitored at 355 nm/460 nm, is proportional to the amount of amylin present in the sample.

T1 sequence (O60896 24-148): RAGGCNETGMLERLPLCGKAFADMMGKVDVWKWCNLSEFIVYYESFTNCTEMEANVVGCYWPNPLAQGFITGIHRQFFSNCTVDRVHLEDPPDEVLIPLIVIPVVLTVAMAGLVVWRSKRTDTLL
T1 sequence (P30988 25-474): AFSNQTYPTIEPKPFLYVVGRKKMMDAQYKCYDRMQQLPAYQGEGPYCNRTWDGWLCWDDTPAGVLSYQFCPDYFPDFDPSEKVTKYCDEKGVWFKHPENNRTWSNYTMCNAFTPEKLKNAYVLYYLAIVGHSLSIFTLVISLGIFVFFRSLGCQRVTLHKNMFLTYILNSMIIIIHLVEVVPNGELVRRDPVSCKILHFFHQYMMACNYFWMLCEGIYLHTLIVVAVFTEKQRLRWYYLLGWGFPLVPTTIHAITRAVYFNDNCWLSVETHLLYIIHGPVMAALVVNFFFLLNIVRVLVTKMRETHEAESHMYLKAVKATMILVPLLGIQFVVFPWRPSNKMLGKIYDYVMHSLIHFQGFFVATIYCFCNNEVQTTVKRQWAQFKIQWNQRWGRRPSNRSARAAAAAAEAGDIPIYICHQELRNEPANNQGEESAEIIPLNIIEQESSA

Structure (SMILES)	EC50 [1] [nM]	half-life [2] [h]	half-life [3] [h]	half-life ([2]; in vivo) [h]	half-life ([3]; in vivo) [h]
CC[C@H](C)[C@H](NC(=O)[C@@H]1CCCN1C(=O)CNC(=O)[C@H](Cc1ccccc1)NC(=O)[C@H](CC(N)=O)NC(=O)[C@H](CC(N)=O)NC(=O)[C@H](CO)NC(=O)[C@H](CO)NC(=O)[C@H](Cc1c[nH]cn1)NC(=O)[C@H](CO)NC(=O)[C@H](CC(C)C)NC(=O)[C@H](Cc1ccccc1)NC(=O)[C@H](CC(N)=O)NC(=O)[C@H](C)NC(=O)[C@H](CC(C)C)NC(=O)[C@H](CCCNC(=N)N)NC(=O)[C@H](CCC(N)=O)NC(=O)[C@@H](NC(=O)[C@H](C)NC(=O)[C@@H]1CSSC[C@H](NC(=O)[C@H](CCCCN)NC(=O)[C@H](CCCNC(=N)N)NC(=O)CC[C@H](NC(=O)CCCCCCCCCCCCCCCCCCC(=O)O)C(=O)O)C(=O)N[C@@H](CC(N)=O)C(=O)N[C@@H]([C@@H](C)O)C(=O)N[C@@H](C)C(=O)N[C@@H]([C@@H](C)O)C(=O)N1)[C@@H](C)O)C(=O)N[C@@H](CC(C)C)C(=O)N1CCC[C@H]1C(=O)N1CCC[C@H]1C(=O)N[C@H](C(=O)N[C@@H](CC(N)=O)C(=O)N[C@H](C(=O)NCC(=O)N[C@@H](CO)C(=O)N[C@@H](CC(N)=O)C(=O)N[C@H](C(=O)N[C@@H](Cc1ccc(O)cc1)C(N)=O)[C@@H](C)O)C(C)C)[C@@H](C)O [Example 20, N-alpha-[(S)-4-Carboxy-4-(19-carboxynonadecanoylamino)butyryl]-Arg-[Ser17]-pramlintide] ({C20 diacid-γGlu}-RKCNTATCATQRLANFLSHSSNNFGPILPPTNVGSNTY-NH2; disulfide 3-8)	0.1	41	10	–	–
CC[C@H](C)[C@H](NC(=O)[C@@H]1CCCN1C(=O)CNC(=O)[C@H](Cc1ccccc1)NC(=O)[C@H](CC(N)=O)NC(=O)[C@H](CC(N)=O)NC(=O)[C@H](CO)NC(=O)[C@H](CO)NC(=O)[C@H](Cc1c[nH]cn1)NC(=O)[C@H](Cc1c[nH]cn1)NC(=O)[C@H](CC(C)C)NC(=O)[C@H](Cc1ccccc1)NC(=O)[C@H](CC(N)=O)NC(=O)[C@H](C)NC(=O)[C@H](CC(C)C)NC(=O)[C@H](CCCNC(=N)N)NC(=O)[C@H](CCC(N)=O)NC(=O)[C@@H](NC(=O)[C@H](C)NC(=O)[C@@H]1CSSC[C@H](NC(=O)[C@H](CCCCN)NC(=O)CC[C@H](NC(=O)CCCCCCCCCCCCCCCCCCC(=O)O)C(=O)O)C(=O)N[C@@H](CC(N)=O)C(=O)N[C@@H]([C@@H](C)O)C(=O)N[C@@H](C)C(=O)N[C@@H]([C@@H](C)O)C(=O)N1)[C@@H](C)O)C(=O)N[C@@H](CC(C)C)C(=O)N1CCC[C@H]1C(=O)N1CCC[C@H]1C(=O)N[C@H](C(=O)N[C@@H](CC(N)=O)C(=O)N[C@H](C(=O)NCC(=O)N[C@@H](CO)C(=O)N[C@@H](CC(N)=O)C(=O)N[C@H](C(=O)N[C@@H](Cc1ccc(O)cc1)C(N)=O)[C@@H](C)O)C(C)C)[C@@H](C)O [Example 5, N-alpha-[(S)-4-Carboxy-4-(19-carboxynonadecanoylamino)butyryl]-[His17]-pramlintide] ({C20 diacid-γGlu}-KCNTATCATQRLANFLHHSSNNFGPILPPTNVGSNTY-NH2; disulfide 2-7)	0.1	–	–	70	16
CC[C@H](C)[C@H](NC(=O)[C@@H]1CCCN1C(=O)CNC(=O)[C@H](Cc1ccccc1)NC(=O)[C@H](CC(N)=O)NC(=O)[C@H](CC(N)=O)NC(=O)[C@H](CO)NC(=O)[C@H](CO)NC(=O)[C@H](Cc1c[nH]cn1)NC(=O)[C@H](CCCNC(=N)N)NC(=O)[C@H](CC(C)C)NC(=O)[C@H](Cc1ccccc1)NC(=O)[C@H](CC(N)=O)NC(=O)[C@H](C)NC(=O)[C@H](CC(C)C)NC(=O)[C@H](CCCNC(=N)N)NC(=O)[C@H](CCC(N)=O)NC(=O)[C@@H](NC(=O)[C@H](C)NC(=O)[C@@H]1CSSC[C@H](NC(=O)[C@H](CCCCN)NC(=O)[C@H](CCCNC(=N)N)NC(=O)CC[C@H](NC(=O)CCCCCCCCCCCCCCCCCCC(=O)O)C(=O)O)C(=O)N[C@@H](CC(N)=O)C(=O)N[C@@H]([C@@H](C)O)C(=O)N[C@@H](C)C(=O)N[C@@H]([C@@H](C)O)C(=O)N1)[C@@H](C)O)C(=O)N[C@@H](CC(C)C)C(=O)N1CCC[C@H]1C(=O)N1CCC[C@H]1C(=O)N[C@H](C(=O)N[C@@H](CC(N)=O)C(=O)N[C@H](C(=O)NCC(=O)N[C@@H](CO)C(=O)N[C@@H](CC(N)=O)C(=O)N[C@H](C(=O)N[C@@H](Cc1ccc(O)cc1)C(N)=O)[C@@H](C)O)C(C)C)[C@@H](C)O [Example 22, N-alpha-[(S)-4-Carboxy-4-(19-carboxynonadecanoylamino)butyryl]-Arg-[Arg17]-pramlintide] ({C20 diacid-γGlu}-RKCNTATCATQRLANFLRHSSNNFGPILPPTNVGSNTY-NH2; disulfide 3-8)	0.1	34	13	–	–
CC[C@H](C)[C@H](NC(=O)[C@@H]1CCCN1C(=O)CNC(=O)[C@H](Cc1ccccc1)NC(=O)[C@H](CC(N)=O)NC(=O)[C@H](CC(N)=O)NC(=O)[C@H](CO)NC(=O)[C@H](CO)NC(=O)[C@H](Cc1c[nH]cn1)NC(=O)[C@H](Cc1c[nH]cn1)NC(=O)[C@H](CC(C)C)NC(=O)[C@H](Cc1ccccc1)NC(=O)[C@H](CC(N)=O)NC(=O)[C@H](C)NC(=O)[C@H](CC(C)C)NC(=O)[C@H](CCCNC(=N)N)NC(=O)[C@H](CCC(N)=O)NC(=O)[C@@H](NC(=O)[C@H](C)NC(=O)[C@@H]1CSSC[C@H](NC(=O)CC[C@H](NC(=O)CCCCCCCCCCCCCCCCC(=O)O)C(=O)O)C(=O)N[C@@H](CC(N)=O)C(=O)N[C@@H]([C@@H](C)O)C(=O)N[C@@H](C)C(=O)N[C@@H]([C@@H](C)O)C(=O)N1)[C@@H](C)O)C(=O)N[C@@H](CC(C)C)C(=O)N1CCC[C@H]1C(=O)N1CCC[C@H]1C(=O)N[C@H](C(=O)N[C@@H](CC(N)=O)C(=O)N[C@H](C(=O)NCC(=O)N[C@@H](CO)C(=O)N[C@@H](CC(N)=O)C(=O)N[C@H](C(=O)N[C@@H](Cc1ccc(O)cc1)C(N)=O)[C@@H](C)O)C(C)C)[C@@H](C)O [Example 10, N-alpha-[(S)-4-Carboxy-4-(17-carboxyheptadecanoylamino)butyryl]-[His17]-pramlintide (2-37)] ({C18 diacid-γGlu}-CNTATCATQRLANFLHHSSNNFGPILPPTNVGSNTY-NH2; disulfide 1-6)	0.08	66	11	–	–
